# Assay results from paper PMC3867523 (Journal of hepatology, 2013).
# Ends that are not written are not given here.
# Target: HLA-B*27:05 (Homo sapiens, UniProt P01889, D138H/D201E/E176V/E204Q/G107R/H137Y/K202T/N104T/N87E/Q56L/Q94K/R106L/R155S/R180L/S101D/S121N/S48T/Y140D/Y33H/Y91C)
# Test: biochemical
# Assay type: binding
row,Sequence,IC50 [nM]
1,ARHTPVNSW [NS5B-2820],338
2,ARMILMTHF [NS5B-2841],1.1
3,GRAAICGKY [NS5B-2936],1
